Results from US8039514B2, “Sulfonamide compounds and use thereof” (Asahi Kasei Pharma Corporation, priority 2008, dated 2011).

Key:
[1] = target: T1, human calcium-sensing receptor (CaSR) (Homo sapiens, UniProt P41180); experiment: intracellular Ca assay, CaSR antagonist activity in HEK293/hCaSR cells; assay type: cell-based; settings: Fura2-AM, inhibition of response to calcium chloride ligand solution, read-out: IC50 values according to the intracellular Ca assay (CaSR antagonist activity)
T1 construct: expressed in transfected cells
T1 sequence (P41180 20-1078): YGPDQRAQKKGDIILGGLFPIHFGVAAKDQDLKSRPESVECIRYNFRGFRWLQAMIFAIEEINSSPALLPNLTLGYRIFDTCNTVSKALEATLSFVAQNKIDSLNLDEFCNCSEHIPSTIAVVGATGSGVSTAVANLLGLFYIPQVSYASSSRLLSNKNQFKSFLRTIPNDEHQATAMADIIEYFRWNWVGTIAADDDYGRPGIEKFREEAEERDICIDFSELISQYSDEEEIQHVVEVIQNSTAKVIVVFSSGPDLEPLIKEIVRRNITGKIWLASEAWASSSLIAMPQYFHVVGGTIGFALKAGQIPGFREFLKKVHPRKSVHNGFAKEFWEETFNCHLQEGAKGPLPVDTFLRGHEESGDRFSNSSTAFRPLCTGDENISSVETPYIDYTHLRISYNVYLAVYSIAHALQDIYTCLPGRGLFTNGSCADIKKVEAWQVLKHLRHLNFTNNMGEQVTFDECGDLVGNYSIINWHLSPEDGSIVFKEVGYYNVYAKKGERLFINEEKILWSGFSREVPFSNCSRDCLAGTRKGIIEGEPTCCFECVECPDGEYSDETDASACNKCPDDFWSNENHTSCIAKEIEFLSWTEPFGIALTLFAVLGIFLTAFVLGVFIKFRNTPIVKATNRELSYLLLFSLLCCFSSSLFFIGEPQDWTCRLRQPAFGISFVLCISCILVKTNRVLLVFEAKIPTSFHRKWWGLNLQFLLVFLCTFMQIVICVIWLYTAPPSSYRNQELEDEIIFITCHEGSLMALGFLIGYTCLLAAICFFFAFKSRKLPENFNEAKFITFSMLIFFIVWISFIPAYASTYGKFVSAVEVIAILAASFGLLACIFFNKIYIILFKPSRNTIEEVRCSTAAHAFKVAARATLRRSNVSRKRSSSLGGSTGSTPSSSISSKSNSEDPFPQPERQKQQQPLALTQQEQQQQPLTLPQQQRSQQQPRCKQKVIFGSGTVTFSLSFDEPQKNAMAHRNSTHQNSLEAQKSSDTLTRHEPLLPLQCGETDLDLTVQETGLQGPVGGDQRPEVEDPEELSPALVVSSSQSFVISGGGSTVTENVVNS
Procedure, shortened: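 HEK293/hCaSR cells were loaded with Fura2-AM and pre-incubated with compound for 160 s at 37° C in HEPES buffer (pH 7.4, 0.8 mM CaCl2), then challenged with calcium ligand solution. Read-out was the peak 340/380 nm fluorescence ratio; inhibition is relative to no-compound (0%) and no-calcium-ligand (100%) controls.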

[2] = system: PTH concentration in blood; assay type: in vivo; settings: for death or abnormality of the rat administered with the compounds: 0.1-100 mg/kg intravenous or oral; for PTH concentration in blood after 30 minutes / dose dependence of PTH concentration increase / PTH concentration in blood 5 minutes after the intravenous administration: rat, 0.1-100 mg/kg; for PTH concentration in blood 5 minutes after the intravenous administration: Rat Intact PTH ELISA, versus normal value
Experimental: Compounds of Exp. 3-49, Exp. 3-57, Exp. 3-93, Exp. 3-95, Exp. 3-102, Exp. 3-106, Exp. 8-5, Exp. 10-1 and Exp. 10-25 were chosen as a test compound. Each of them was either dissolved or suspended in physiological saline or distilled water containing 1-20% DMSO, 5% CremophorEL, 10-40% PEG300, etc. and administered intravenously (tail vein or femoral vein) or orally administered to a 7 week to 10 week old male SD-IGS rat (Nippon Charles-River) with dosage of 0.1-100 mg/kg. After that, blood sample was taken from subclavian vein over the time and serum was separated. Concentration of PTH in blood was measured using Rat Intact PTH ELISA Kit (manufactured by Immutopics) to evaluate an activity of increasing PTH concentration in blood. […] Therefore, the safety of these compounds was confirmed again.

Compound	IC50 [1] [µM]	death or abnormality of the rat administered with the compounds [2]	PTH concentration in blood after 30 minutes [2]	dose dependence of PTH concentration increase [2]	PTH concentration in blood 5 minutes after the intravenous administration [2]
CN(C[C@H](O)CNC(C)(C)CC1Cc2ccccc2C1)S(=O)(=O)c1cccc(-c2cccc(C(=O)O)c2)c1 [Exp. 3-49, (R)-3′-(N-(3-(1-(2,3-dihydro-1H-inden-2-yl)-2-methylpropan-2-ylamino)-2-hydroxypropyl)-N-methylsulfamoyl)biphenyl-3-carboxylic acid]	≤ 0.3	no death or abnormality was found	returned to a normal value	dependent on the administration amount of the compound	increased at least twice the normal value
CN(C[C@H](O)CNC(C)(C)CC1Cc2ccccc2C1)S(=O)(=O)c1cccc(-c2ccc(CCC(=O)O)cc2)c1 [Exp. 3-57, (R)-3-(3′ (N-(3-(1-(2,3-dihydro-1H-inden-2-yl)-2-methylpropan-2-ylamino)-2-hydroxypropyl)-N-methylsulfamoyl)biphenyl-4-yl)propionic acid]	0.3 to 1	no death or abnormality was found	returned to a normal value	dependent on the administration amount of the compound	increased at least twice the normal value
CN(C[C@H](O)CNC(C)(C)Cc1ccc(Cl)c(F)c1)S(=O)(=O)c1cc(-c2ccc(CCC(=O)O)cc2)cc(C(F)(F)F)c1 [Exp. 3-95, (R)-3-(3′-(N-(3-(1-(4-chloro-3-fluorophenyl)-2-methylpropan-2-ylamino)-2-hydroxypropyl)-N-methylsulfamoyl)-5′-(trifluoromethyl)biphenyl-4-yl)propionic acid]		no death or abnormality was found	returned to a normal value	dependent on the administration amount of the compound	increased at least twice the normal value
CCc1cc(-c2ccc(CCC(=O)O)cc2)ccc1S(=O)(=O)N(C)C[C@H](O)CNC(C)(C)CC1Cc2ccccc2C1 [Exp. 3-102, (R)-3-(4′-(N-(3-(1-(2,3-dihydro-1H-inden-2-yl)-2-methylpropan-2-ylamino)-2-hydroxypropyl)-N-methylsulfamoyl)-3′-ethylbiphenyl-4-yl)propionic acid]		no death or abnormality was found	returned to a normal value	dependent on the administration amount of the compound	increased at least twice the normal value
CCc1cc(-c2ccc(CCC(=O)O)cc2)ccc1S(=O)(=O)N(C)C[C@H](O)CNC(C)(C)CCCc1cccc(F)c1 [Exp. 9-90, (R)-3-(3′-ethyl-4′-(N-(3-(5-(3-fluorophenyl)-2-methylpentan-2-ylamino)-2-hydroxypropyl)-N-methylsulfamoyl)biphenyl-4-yl)propionic acid]	≤ 0.3				
CCc1cc(-c2ccc(CCC(=O)O)cc2)ccc1S(=O)(=O)N(C)C[C@H](O)CNC(C)(C)CCCc1cccs1 [Exp. 9-92, (R)-3-(3′-ethyl-4′-(N-(2-hydroxy-3-(2-methyl-5-(thiophen-2-yl)pentan-2-ylamino)propyl)-N-methylsulfamoyl)biphenyl-4-yl)propionic acid]	≤ 0.3				
CN(C[C@H](O)CNC(C)(C)CC1Cc2ccccc2C1)S(=O)(=O)c1ccc(-c2cccc(CCC(=O)O)n2)c(Cl)c1 [Exp. 9-161, (R)-3-(6-(2-chloro-4-(N-(3-(1-(2,3-dihydro-1H-inden-2-yl)-2-methylpropan-2-ylamino)-2-hydroxypropyl)-N-methylsulfamoyl)phenyl)pyridin-2-yl)propionic acid]	≤ 0.3				
CN(C[C@H](O)CNC(C)(C)CCCc1ccccc1)S(=O)(=O)c1cc(F)cc(CCC(=O)O)c1Cl [Exp. 9-173, (R)-3-(2-chloro-5-fluoro-3-(N-(2-hydroxy-3-(2-methyl-5-phenylpentan-2-ylamino)propyl)-N-methylsulfamoyl)phenyl)propionic acid]	≤ 0.3				
CN(C[C@H](O)CNC(C)(C)CCCc1ccccc1)S(=O)(=O)c1cc(OCC(=O)O)cc(C(F)(F)F)c1 [Exp. 9-179, (R)-2-(3-(N-(2-hydroxy-3-(2-methyl-5-phenylpentan-2-ylamino)propyl)-N-methylsulfamoyl)-5-(trifluoromethyl)phenyloxy)acetic acid]	≤ 0.3				
CN(C[C@H](O)CNC(C)(C)CCCc1ccccc1)S(=O)(=O)c1cc(NCC(=O)O)cc(C(F)(F)F)c1 [Exp. 9-180, (R)-2-(3-(N-(2-hydroxy-3-(2-methyl-5-phenylpentan-2-ylamino)propyl)-N-methylsulfamoyl)-5-(trifluoromethyl)phenylamino)acetic acid]	≤ 0.3				
CN(C[C@H](O)CNC(C)(C)CC1Cc2ccccc2C1)S(=O)(=O)c1cc(CCC(=O)O)cc(C(F)(F)F)c1 [Exp. 10-1, (R)-3-(3-(N-(3-(1-(2,3-dihydro-1H-inden-2-yl)-2-methylpropan-2-ylamino)-2-hydroxypropyl)-N-methylsulfamoyl)-5-(trifluoromethyl)phenyl)propionic acid]		no death or abnormality was found	returned to a normal value	dependent on the administration amount of the compound	increased at least twice the normal value
CN(C[C@H](O)CNC(C)(C)CC1Cc2ccccc2C1)S(=O)(=O)c1cc(CCCC(=O)O)cc(C(F)(F)F)c1 [Exp. 10-25, (R)-4-(3-(N-(3-(1-(2,3-dihydro-1H-inden-2-yl)-2-methylpropan-2-ylamino)-2-hydroxypropyl)-N-methylsulfamoyl)-5-(trifluoromethyl)phenyl)butanoic acid]		no death or abnormality was found	returned to a normal value	dependent on the administration amount of the compound	increased at least twice the normal value

Second part, led by results:

IC50 [1] [µM]	Compound	death or abnormality of the rat administered with the compounds [2]	PTH concentration in blood after 30 minutes [2]	dose dependence of PTH concentration increase [2]	PTH concentration in blood 5 minutes after the intravenous administration [2]
≤ 0.3	CN(C[C@H](O)CNC(C)(C)CC1Cc2ccccc2C1)S(=O)(=O)c1ccc(CCCCCC(=O)O)c(C(F)(F)F)c1 [Exp. 10-14, (R)-6-(4-(N-(3-(1-(2,3-dihydro-1H-inden-2-yl)-2-methylpropan-2-ylamino)-2-hydroxypropyl)-N-methylsulfamoyl)-2-(trifluoromethyl)phenyl)hexanoic acid]				
≤ 0.3	CN(CC(O)CNC(C)(C)CC1Cc2ccccc2C1)S(=O)(=O)c1cc(C=CC(=O)O)cc(C(F)(F)F)c1 (centres unmarked) [Exp. 11-1, 3-(3-(N-(3-(1-(2,3-dihydro-1H-inden-2-yl)-2-methylpropan-2-ylamino)-2-hydroxypropyl)-N-methylsulfamoyl)-5-(trifluoromethyl)phenyl)acrylic acid]				
≤ 0.3	CC(C)(CC1Cc2ccccc2C1)NC[C@@H](O)CNS(=O)(=O)c1cccc(-c2cccc(C(=O)O)c2)c1 [Exp. 14-2, (R)-3′-(N-(3-(1-(2,3-dihydro-1H-inden-2-yl)-2-methylpropan-2-ylamino)-2-hydroxypropyl)sulfamoyl)biphenyl-3-carboxylic acid]				
